“Also recorded” adds a separate entry of the source.
What was measured:
glucokinase [1] = assay: Intracellular transfer of hepatic glucokinase with hormones and various compounds (rat hepatocyte primary culture); format: cell-based; details: 25 mM D-glucose MEM
Protocol: Wistar rats (male, aged 5 to 8 weeks) were used. A primary culture of the rat hepatocyte was incubated for a certain period of time in a 25 mM D-glucose-containing MEM culture medium supplemented with hormones and various compounds. The hepatocytes were fixed with 4% para-formaldehyde, and stained by a fluorescence antibody method using an anti-glucokinase antibody. A fluorescent image obtained with a co-focus laser microscope was analyzed with the NIH Image to calculate the fluorescence intensity in the nucleus and the cytoplasm, which were defined as the glucokinase level in the nucleus and the cytoplasm.

glucokinase [2] = target: T1, glucokinase (Rattus norvegicus, UniProt P17712); assay: Intracellular transfer of hepatic glucokinase with ketose (fluorescence antibody method, rat hepatocyte primary culture); format: cell-based
T1 construct: stained by a fluorescence antibody method using an anti-glucokinase antibody; endogenous in cells; host or cells: primary culture of hepatocytes from male Wistar rats
T1 sequence (P17712 1-465 isoform P17712-3): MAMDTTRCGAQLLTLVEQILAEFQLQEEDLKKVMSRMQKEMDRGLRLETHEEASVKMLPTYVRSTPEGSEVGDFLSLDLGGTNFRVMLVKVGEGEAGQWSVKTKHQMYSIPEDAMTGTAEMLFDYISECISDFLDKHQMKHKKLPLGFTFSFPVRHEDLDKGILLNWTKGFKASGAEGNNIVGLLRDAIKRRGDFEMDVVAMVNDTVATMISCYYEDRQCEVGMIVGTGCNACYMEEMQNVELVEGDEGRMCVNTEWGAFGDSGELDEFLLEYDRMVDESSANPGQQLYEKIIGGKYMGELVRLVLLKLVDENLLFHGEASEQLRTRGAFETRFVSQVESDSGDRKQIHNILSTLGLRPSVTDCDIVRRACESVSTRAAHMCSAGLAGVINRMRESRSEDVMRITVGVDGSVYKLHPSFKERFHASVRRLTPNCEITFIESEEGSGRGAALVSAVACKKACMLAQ
Protocol: Wistar rats (male, aged 5 to 8 weeks) were used. […] The hepatocytes were fixed with 4% para-formaldehyde, and stained by a fluorescence antibody method using an anti-glucokinase antibody. A fluorescent image obtained with a co-focus laser microscope was analyzed with the NIH Image to calculate the fluorescence intensity in the nucleus and the cytoplasm, which were defined as the glucokinase level in the nucleus and the cytoplasm. […] By the same method as described above, the glucokinase level in the intracellular nucleus and the cytoplasm was determined.

[3] = system: primary culture of rat hepatocytes; assay: Glucose phosphorylation rate in cultured hepatocytes; format: cell-based
Protocol: Subsequently, the primary culture was incubated at various D-fructose concentrations in the presence of 25 mM D-glucose. […] The results agreed with the results reported so far.

glucokinase [4] = target: T1, glucokinase; assay: Hepatic glucokinase transfer from nucleus to cytoplasm after oral sugar given with D-glucose, Wistar rats (Example 3); format: in vivo; details: Wistar rats; 0.2 g/kg oral simultaneously with 2 g/kg D-glucose; 30 minutes later
Protocol: Male Wistar rats starved overnight were given 2 g/kg D-glucose orally. Simultaneously, 0.2 g/kg D-psicose, D-fructose or a mixture of D-psicose and D-fructose at 1:3 were given orally. Thirty minutes later, the rats were perfused and fixed with 4% para-formaldehyde under anesthesia, from which liver was immediately resected to prepare frozen sections. The distribution of glucokinase in the nucleus and the cytoplasm was analyzed with the fluorescence antibody method using an anti-glucokinase antibody. Simultaneously, blood was drawn out from the tail vein and the portal vein, to assay blood glucose levels.

hepatocytes = assay: Lactic acid generation in hepatocytes; format: cell-based, rat; details: each D-ketose added at 0.5 mM; MEM with 15 mM glucose; DMSO control
Protocol: […] As a control, DMSO was added.
(§1) Cultured hepatocytes were incubated in an MEM culture medium containing 5 mM or 25 mM D-glucose with an action of promoting glucokinase transfer from nucleus to cytoplasm. Glucokinase transfer from nucleus to cytoplasm, glycogen synthesis and lactic acid generation were increased. Via glucose, glucokinase transfer from nucleus to cytoplasm occurs, which raises cytoplasmic glucokinase activity to possibly promote the sugar metabolism in liver. […] (FIGS. 4, 6, 7 and 8)

glucokinase [5] = target: T1, glucokinase; assay: Glucokinase distribution in primary hepatocytes with D-glucose and D-fructose (fluorescence antibody method); format: cell-based; details: 0.5 mM D-fructose present vs absent; 5 mM or 25 mM D-glucose; 37° C. 30 minutes
Protocol: In the presence of 5 mM D-glucose, glucokinase mainly existed in the cell nucleus.
as §1

Goto-Kakizaki rats [6] = assay: Blood glucose levels in tail vein and portal vein after sugar loading, Goto-Kakizaki rats; format: in vivo, rat
Protocol: (§2) The action of suppressing blood glucose increase with D-fructose at a low concentration was examined. To Goto-Kakizaki rats as a model animal of type 2 diabetes mellitus, D-glucose to 2 g/[…] or D-glucose to 2 g/l kg body weight+D-fructose to 0.2 g/1 kg body weight was administered orally, to examine the modification of glucokinase transfer from the nucleus to the cytoplasm in hepatocytes and the change of the blood glucose levels in the portal vein and the tail vein.
(§3) 2 g/kg D-glucose is orally given to male Goto-Kakizaki rats starved overnight. Simultaneously, 0.2 g/kg D-psicose was orally given. Thirty minutes later and 60 minutes later, the rats were perfused and fixed with 4% para-formaldehyde under anesthesia, from which liver was immediately resected to prepare frozen sections. The distribution of hepatic glucokinase in nucleus and cytoplasm was analyzed with the fluorescence antibody method using an anti-glucokinase antibody. Simultaneously, blood was drawn out from the tail vein and the portal vein, to assay blood glucose level and insulin concentration. Herein, liver is divided in the portal vein region and the central vein region of liver. It has been known that the activity of glucokinase in the central vein region is higher by 1.3 fold to 1.5 fold than the activity thereof in the portal vein region. Therefore, the glucokinase distributions in the nucleus and the cytoplasm in the central vein region and the portal vein region were analyzed.

glucokinase [7] = target: T1, glucokinase; assay: Hepatic glucokinase transfer from nucleus to cytoplasm after oral sugar alone, Wistar rats (Example 2); format: in vivo; details: Wistar rats starved overnight; 2 g/kg oral; 30 minutes later
Protocol: Thirty minutes later, the rats were subjected to perfusion and fixing with 4% para-formaldehyde under anesthesia, from which liver was immediately resected to prepare frozen sections. The distribution of glucokinase in nucleus and cytoplasm was analyzed with the fluorescence antibody method using an anti-glucokinase antibody. Simultaneously, blood was drawn out from the tail vein and the portal vein, to assay blood glucose levels.

glucokinase [8] = target: T1, glucokinase; assay: Hepatic glucokinase transfer from nucleus to cytoplasm in Goto-Kakizaki rats (type 2 diabetes model); format: in vivo
Protocol: as §2, §3

Goto-Kakizaki rats [9] = assay: Insulin concentrations in tail vein and portal vein under sugar loading, Goto-Kakizaki rats; format: in vivo, rat; details: 0.2 g/kg with 2 g/kg D-glucose oral, 30 minutes and 60 minutes, vs D-glucose alone
Protocol: as §3

[10] = ketose added, MEM culture medium with 5 mM or 15 mM D-glucose
[11] = 0.2 g/kg with 2 g/kg D-glucose oral, 30 minutes and 60 minutes, vs D-glucose alone
[12] = 0.2 g/kg with 2 g/kg D-glucose oral, compared with D-glucose alone, portal and central vein regions

`CCCC(=O)Nc1ncnc2c1ncn2[C@@H]1O[C@@H]2COP(=O)(O)O[C@H]2[C@H]1OC(=O)CCC` [Bt2cAMP] was tested. Which cytoplasmic glucokinase (glucokinase [1]; hormone or compound alone) did it give?
The cytoplasmic glucokinase was “cytoplasmic glucokinase activity was reduced”.

Which results are given for `O=C(CO)[C@@H](O)[C@H](O)[C@H](O)CO` [D-fructose]?
glucokinase transfer from nucleus to cytoplasm (glucokinase [2]; ketose added at 1 mM or more, 5 mM or 15 mM D-glucose): glucokinase transfer from nucleus to cytoplasm was gradually reduced; glucokinase transfer from nucleus to cytoplasm (glucokinase [2]; [10]): glucokinase transferred from nucleus to cytoplasm; glucose phosphorylation ([3]; 0.5 mM D-fructose present vs absent, various glucose concentrations): enhanced glucose phosphorylation in the hepatocytes; glucose phosphorylation ([3]; above 0.5 mM D-fructose, 25 mM D-glucose): glucose phosphorylation was reduced; glucose phosphorylation ([3]; up to 0.5 mM D-fructose, 25 mM D-glucose): glucose phosphorylation was enhanced as the D-fructose concentration was raised; glucokinase transfer from the nucleus to the cytoplasm in hepatocytes (glucokinase [4]): glucokinase was mostly transferred to the cytoplasm; lactic acid generation (hepatocytes): lactic acid generation was increased; glucokinase transfer from the nucleus to the cytoplasm (glucokinase [5]): the glucokinase transfer from the nucleus to the cytoplasm increased; blood glucose level in the portal vein (Goto-Kakizaki rats [6]; additional supplement of D-fructose compared with D-glucose alone): suppressed significantly; blood glucose level in the portal vein (Goto-Kakizaki rats [6]; effect of D-fructose loading added to D-glucose): No difference was observed; glucokinase transfer from the nucleus to the cytoplasm in hepatocytes (glucokinase [7]): a higher level of the transfer was observed than with D-psicose; glucokinase transfer from the nucleus to the cytoplasm in hepatocytes (glucokinase [8]; D-glucose 2 g/kg + D-fructose 0.2 g/kg oral, compared with D-glucose alone): significantly increased

Which results are given for `O=C(CO)[C@H](O)[C@H](O)[C@H](O)CO` [D-psicose]?
glucokinase transfer from nucleus to cytoplasm (glucokinase [2]; even at a high ketose concentration): exerted an action to promote glucokinase transfer from nucleus to cytoplasm; glucokinase transfer from nucleus to cytoplasm (glucokinase [2]; [10]): glucokinase transferred from nucleus to cytoplasm; glucokinase transfer from the nucleus to the cytoplasm in hepatocytes (glucokinase [4]): glucokinase was transferred to the cytoplasm apparently but more weakly than with D-fructose; lactic acid generation (hepatocytes): lactic acid generation was increased; insulin concentration in the portal vein (Goto-Kakizaki rats [9]): significantly lower values; insulin concentration in the tail vein (Goto-Kakizaki rats [9]): significantly lower values; glucose concentration in the portal vein (Goto-Kakizaki rats [6]; [11]): significantly lower values; glucose concentration in the tail vein (Goto-Kakizaki rats [6]; [11]): significantly lower values; glucokinase transfer from the nucleus to the cytoplasm in hepatocytes (glucokinase [7]): glucokinase transfer from the nucleus to the cytoplasm could be observed; cytoplasmic glucokinase fluorescence (liver) (glucokinase [8]; [12]): increased the cytoplasmic fluorescence; nuclear glucokinase fluorescence (liver) (glucokinase [8]; [12]): significantly reduced the nuclear fluorescence; cytoplasmic glucokinase level (fluorescence intensity analysis) (glucokinase [8]; simultaneous administration with D-glucose vs D-glucose alone, central vein and portal vein regions): further increased the cytoplasmic glucokinase level

Which “glucokinase transfer from nucleus to cytoplasm” value (glucokinase [2]; at any of the ketose concentrations) does the source give for `O=C(CO)[C@H](O)[C@@H](O)[C@H](O)CO` [D-sorbose] here?
Its value is “did not influence glucokinase transfer; also recorded: hardly influenced such glucokinase transfer”.

Which “glucokinase transfer from nucleus to cytoplasm” value (glucokinase [2]; ketose added up to 1 mM, any of the D-glucose concentrations) does the source give for `O=C(CO)[C@@H](O)[C@@H](O)[C@H](O)CO` [D-tagatose] here?
The value was “glucokinase transferred from nucleus to cytoplasm”.

And the “glucokinase transfer from nucleus to cytoplasm” value (glucokinase [2]; [10])?
The value was “glucokinase transferred from nucleus to cytoplasm”.

And the “glucokinase transfer from nucleus to cytoplasm” value (glucokinase [2]; ketose concentration 10 mM or more)?
Its value is “no change of the glucokinase transfer was observed; also recorded: no glucokinase transfer from nucleus to cytoplasm was observed”.

How did the cytoplasmic glucokinase (glucokinase [1]; hormone or compound alone) turn out when `CC(C)Cn1c(=O)n(C)c(=O)c2[nH]cnc21` [IBMX] was run?
Its cytoplasmic glucokinase is “cytoplasmic glucokinase activity was reduced”.

With `CCCCCCOC(=O)[C@]1(O)C[C@@H]2O[C@@]1(C)n1c3ccccc3c3c4c(c5c6ccccc6n2c5c31)C(=O)NC4` [KT-5720] as the molecule, how does the cytoplasmic glucokinase (glucokinase [1]; compound in the presence of glucagon) read?
The cytoplasmic glucokinase was “Almost no reduction of cytoplasmic glucokinase with glucagon was observed any more”.

For `O=C(CO)[C@H](O)[C@@H](O)[C@@H](O)CO` [L-fructose], which “glucokinase transfer from nucleus to cytoplasm” value (glucokinase [2]; ketose added at 20 mM or more, 5 mM or 15 mM D-glucose) is on record?
Its value is “glucokinase transfer from nucleus to cytoplasm was gradually reduced”.

And the “glucokinase transfer from nucleus to cytoplasm” value (glucokinase [2]; [10])?
The value was “glucokinase transferred from nucleus to cytoplasm”.

With `O=C(CO)[C@@H](O)[C@@H](O)[C@@H](O)CO` [L-psicose] as the molecule, how does the “glucokinase transfer from nucleus to cytoplasm” value (glucokinase [2]; [10]) read?
The value was “glucokinase transferred from nucleus to cytoplasm”.

For `O=C(CO)[C@@H](O)[C@H](O)[C@@H](O)CO` [L-sorbose], which “glucokinase transfer from nucleus to cytoplasm” value (glucokinase [2]; [10]) is on record?
The value was “glucokinase transferred from nucleus to cytoplasm as the L-sorbose concentration was raised”.

Which “glucokinase transfer from nucleus to cytoplasm” value (glucokinase [2]; [10]) does the source give for `O=C(CO)[C@H](O)[C@H](O)[C@@H](O)CO` [L-tagatose] here?
The value was “never influenced the glucokinase transfer”.

With `COc1cccc(-c2cc(=O)c3ccccc3o2)c1N` [PD-98059] as the molecule, how does the cytoplasmic glucokinase (glucokinase [1]; compound in the presence of insulin) read?
Its cytoplasmic glucokinase is “such change could not be observed”.

“glucagon: hormone that transfers glucokinase from cytoplasm to nucleus” was tested. Which cytoplasmic glucokinase (glucokinase [1]; hormone or compound alone) did it give?
Its cytoplasmic glucokinase is “cytoplasmic glucokinase activity was reduced”.

How did the cytoplasmic glucokinase (glucokinase [1]; hormone or compound alone) turn out when “insulin: hormone that transfers glucokinase from nucleus to cytoplasm” was run?
The cytoplasmic glucokinase was “increase of cytoplasmic glucokinase”.

Source: patent US20140336267A1, “UTILIZATION OF THE FUNCTION OF RARE SUGAR AS PROMOTER FOR THE MIGRATION OF GLUCOKINASE FROM NUCLEUS TO CYTOPLASM” (NATIONAL UNIVERSITY CORPORATION KAGAWA UNIVERSITY, priority 2006, published 2014)
